# Measured values taken from US20230023935A1, “USE OF MASITINIB FOR THE TREATMENT OF EOSINOPHILIC ASTHMA” (AB SCIENCE, priority 2019, published 2023).
# Test system: subjects with severe persistent asthma treated with oral corticosteroids
# Test: Phase 3 study AB07015: masitinib 6 mg/kg/day versus placebo, severe asthma exacerbations by baseline blood eosinophil cohort
# Type: in vivo, human
# Conditions: for Rate ratio (Estimate) for asthma exacerbations: Poisson regression
# Protocol: A prospective, multicenter, randomized, double-blind, placebo-controlled, 2-parallel groups, phase 3 study was carried out to compare the efficacy and the safety of masitinib at 6 mg/kg/day versus placebo in the treatment of subjects with severe persistent asthma treated with oral corticosteroids. Said clinical trial (reference AB07015) is registered under the EudraCT number: 2010-020803-63 and under the ClinicalTrials.gov identifier: NCT01449162. Patients were randomized in two groups with a masitinib to placebo randomization ratio of 2:1, respectively: • Group 1: patients receiving masitinib at 6 mg/kg/day; • Group 2: patients receiving placebo. […] According to the statistical analysis plan of study AB07015 (version 1.0 dated 18 Oct. 2019), the overall assessable population was defined as: ‘all patients in full analysis set (FAS) with severe asthma already treated with oral corticosteroids at a minimal daily dose of greater than 5 mg prednisone or equivalent for at least 3 months prior to screening.’ Subgroup analyses were performed with cohort categorization of severe asthma patients according to eosinophil blood count at baseline. The primary efficacy endpoint was defined as the severe asthma exacerbation rate adjusted on the available person-time (time to end of treatment) on full exposure (main period+extension/weaning period). The rate of severe asthma exacerbations was analyzed by applying a Poisson regression (log-link function and Poisson distribution) model. Because eosinophilic inflammation is correlated with asthma severity, it was of interest to perform subgroup analyses according to blood eosinophil levels. Table 2 below presents the results regarding masitinib treatment effect with respect to placebo (rate ratio for asthma exacerbations requiring steroid therapy) in various blood eosinophil level-defined cohorts, and their complement cohorts (according to the primary efficacy analysis population). The rate of asthma exacerbations is analyzed using Poisson regression with treatment group (masitinib, placebo) as the primary variable (covariate) of interest.
# [1] = masitinib 6 mg/kg/day oral, blood eosinophils equal to or higher than 150 cells/μL (M: 181)
# [2] = masitinib 6 mg/kg/day oral, blood eosinophils equal to or lower than 300 cells/μL (M: 145)
# [3] = masitinib 6 mg/kg/day oral, blood eosinophils higher than 300 cells/μL (M: 95)
# [4] = masitinib 6 mg/kg/day oral, blood eosinophils lower than 150 cells/μL (M: 59)
# [5] = masitinib 6 mg/kg/day oral, blood eosinophils ranging from 150 to 300 cells/μL (M: 86)
# [6] = masitinib vs placebo, blood eosinophils equal to or higher than 150 cells/μL
# [7] = masitinib vs placebo, blood eosinophils equal to or lower than 300 cells/μL
# [8] = masitinib vs placebo, blood eosinophils higher than 300 cells/μL
# [9] = masitinib vs placebo, blood eosinophils lower than 150 cells/μL
# [10] = masitinib vs placebo, blood eosinophils ranging from 150 to 300 cells/μL
# [11] = masitinib vs placebo, blood eosinophils equal to or higher than 300 cells/μL
compound,measurement,setting,value
"Cc1ccc(NC(=O)c2ccc(CN3CCN(C)CC3)cc2)cc1Nc1nc(-c2cccnc2)cs1 [Masitinib, 4-(4-methylpiperazin-1-ylmethyl)-N-[4-methyl-3-(4-pyridin-3ylthiazol-2-ylamino)phenyl]benzamide]",Yearly Exacerbation Rate,"masitinib 6 mg/kg/day oral, blood eosinophils equal to or higher than 150 cells/μL",0.34 severe exacerbations per year
same,Number of Severe Exacerbations,[1],67
same,n: number of subjects who experienced severe exacerbation,[1],(n = 39)
same,exacerbation rate,"masitinib 6 mg/kg/day oral, blood eosinophils equal to or higher than 300 cells/μL (95 patients)",0.29 severe exacerbations per year
same,Yearly Exacerbation Rate,"masitinib 6 mg/kg/day oral, blood eosinophils equal to or lower than 300 cells/μL",0.37
same,Number of Severe Exacerbations,[2],65
same,n: number of subjects who experienced severe exacerbation,[2],(n = 35)
same,Yearly Exacerbation Rate,"masitinib 6 mg/kg/day oral, blood eosinophils higher than 300 cells/μL",0.29
same,Number of Severe Exacerbations,[3],29
same,n: number of subjects who experienced severe exacerbation,[3],(n = 19)
same,Yearly Exacerbation Rate,"masitinib 6 mg/kg/day oral, blood eosinophils lower than 150 cells/μL",0.36 severe exacerbations per year
same,Number of Severe Exacerbations,[4],27
same,n: number of subjects who experienced severe exacerbation,[4],(n = 15)
same,Yearly Exacerbation Rate,"masitinib 6 mg/kg/day oral, blood eosinophils ranging from 150 to 300 cells/μL",0.38 severe exacerbations per year
same,Number of Severe Exacerbations,[5],38
same,n: number of subjects who experienced severe exacerbation,[5],(n = 20)
same,Rate ratio (Estimate) for asthma exacerbations,[6],0.66
same,Rate ratio (Estimate) for asthma exacerbations,[7],0.81
same,Rate ratio (Estimate) for asthma exacerbations,[8],0.59
same,Rate ratio (Estimate) for asthma exacerbations,[9],0.97
same,Rate ratio (Estimate) for asthma exacerbations,[10],0.72
same,Reduction in Severe Exacerbation,[6],34%
same,Reduction in Severe Exacerbation,"masitinib vs placebo, blood eosinophils equal to or higher than 150 cells/μL, listed as masitinib",33%
same,rate ratio for asthma exacerbations,[11],0.59
same,reduction (improvement) in severe exacerbation,[11],41%
same,Reduction in Severe Exacerbation,[7],19%
same,Reduction in Severe Exacerbation,[8],41%
same,Reduction in Severe Exacerbation,[9],3%
same,difference in exacerbation rate versus placebo,[9],no discernable difference
same,Reduction in Severe Exacerbation,"masitinib vs placebo, blood eosinophils lower than 150 cells/μL, listed as masitinib",3%
same,Reduction in Severe Exacerbation,[10],28%
same,Reduction in Severe Exacerbation,"masitinib vs placebo, blood eosinophils ranging from 150 to 300 cells/μL, listed as masitinib",28%
